Measurements from US20200206108A1, “Oral Care Compositions and Methods of Use” (Colgate-Palmolive Company, priority 2018, published 2020).

Test: Zeta potential of zinc oxide in the presence of amino acids
Type: physicochemical
Conditions: aqueous zinc oxide suspension 12 mM, alone (pH 8) or with the named amino acid (1.7 mmol) added
Protocol: The effect on zinc oxide particle charge upon exposure to amino acids was screened using zeta potential. Specific amino acids were selected based on side chain functionality: L-serine (polar, neutral), L-arginine (polar, cationic), and L-glutamic acid (polar, anionic). For zeta potential measurements, select amino acids (1.7 mmol) were added to aqueous suspensions of zinc oxide (12 mM). This concentration of zinc oxide was studied so as to minimize aggregation during zeta potential measurements. Each amino acid-zinc oxide solution was vortexed, sonicated, and then loaded into a Zetasizer DTS 1061 capillary cuvette. The cuvette was placed in the Zetasizer instrument and 12 zeta runs were performed. An average zeta potential value was calculated from the results.

| SMILES | zeta potential (charge of zinc oxide) |
| --- | --- |
| N=C(N)NCCC[C@H](N)C(=O)O [L-arginine] | +36 mV |
| N[C@@H](CCC(=O)O)C(=O)O [L-glutamic acid] | −28 mV |
| N[C@@H](CO)C(=O)O [L-serine] | did not alter the charge |
| [O]=[Zn] [Zinc oxide, zinc oxide] | +16 mV |
